# US20100056606A1, “Combination therapy using budesonide and antisense oligonucleotide targeted to IL4-receptor alpha” (ISIS Pharmaceuticals, Inc., priority 2005, published 2010)
# Tests used:
# mouse IL-4R alpha RNA = experiment: Antisense inhibition of mouse IL-4R alpha mRNA in b.END cells, real-time PCR; type: cell-based; settings: 24 hours
# Description: The mouse brain endothelial cell line b.END was obtained from Dr. Werner Risau at the Max Plank Institute (Bad Nauheim, Germany). b.END cells were routinely cultured in DMEM, high glucose (Invitrogen Life Technologies, Carlsbad, Calif.) supplemented with 10% fetal bovine serum (Invitrogen Life Technologies, Carlsbad, Calif.). Cells were routinely passaged by trypsinization and dilution when they reached approximately 90% confluence. Cells were seeded into 96-well plates (Falcon-Primaria #353872, BD Biosciences, Bedford, Mass.) at a density of approximately 3000 cells/well for use in oligomeric compound transfection experiments.
# When cells reach appropriate confluency, they are treated with oligonucleotide using Lipofectin™ as described. When cells reached 65-75% confluency, they were treated with oligonucleotide. Oligonucleotide was mixed with LIPOFECTIN™ Invitrogen Life Technologies, Carlsbad, Calif.) in Opti-MEM™-1 reduced serum medium (Invitrogen Life Technologies, Carlsbad, Calif.) to achieve the desired concentration of oligonucleotide and a LIPOFECTIN™ concentration of 2.5 or 3 […] oligonucleotide. This transfection mixture was incubated at room temperature for approximately 0.5 hours. For cells grown in 96-well plates, wells were washed once with 100 μL OPTI-MEM™-1 and then treated with 130 μL of the transfection mixture. Cells grown in 24-well plates or other standard tissue culture plates are treated similarly, using appropriate volumes of medium and oligonucleotide. Cells are treated and data are obtained in duplicate or triplicate. After approximately 4-7 hours of treatment at 37° C., the medium containing the transfection mixture was replaced with fresh culture medium. Cells were harvested 16-24 hours after oligonucleotide treatment.
# Quantitation of IL-4R alpha mRNA levels was accomplished by real-time quantitative PCR using the ABI PRISM™ 7600, 7700, or 7900 Sequence Detection System (PE-Applied Biosystems, Foster City, Calif.) according to manufacturer's instructions.
# Prior to quantitative PCR analysis, primer-probe sets specific to the target gene being measured were evaluated for their ability to be “multiplexed” with a GAPDH amplification reaction. After isolation the RNA is subjected to sequential reverse transcriptase (RT) reaction and real-time PCR, both of which are performed in the same well. RT and PCR reagents were obtained from Invitrogen Life Technologies (Carlsbad, Calif.). […] The RT reaction was carried out by incubation for 30 minutes at 48° C. Following a 10 minute incubation at 95° C. to activate the PLATINUM® Taq, 40 cycles of a two-step PCR protocol were carried out: 95° C. for 15 seconds (denaturation) followed by 60° C. for 1.5 minutes (annealing/extension).
# Gene target quantities obtained by RT, real-time PCR were normalized using either the expression level of GAPDH, a gene whose expression is constant, or by quantifying total RNA using RiboGreen™ (Molecular Probes, Inc. Eugene, Oreg.). GAPDH expression was quantified by RT, real-time PCR, by being run simultaneously with the target, multiplexing, or separately. Total RNA was quantified using RiboGreen™ RNA quantification reagent (Molecular Probes, Inc. Eugene, Oreg.).
# Probes and primers for use in real-time PCR were designed to hybridize to target-specific sequences. The target-specific PCR probes have FAM covalently linked to the 5′ end and TAMRA or MGB covalently linked to the 3′ end, where FAM is the fluorescent dye and TAMRA or MGB is the quencher dye.
# A series of oligomeric compounds was designed to target different regions of mouse IL-4R alpha RNA, using SEQ ID NO: 5. All compounds are chimeric oligonucleotides (“gapmers”) 20 nucleotides in length, composed of a central “gap” region consisting of ten 2′-deoxynucleotides, which is flanked on both sides (5′ and 3′) by five-nucleotide “wings”. The wings are composed of 2′-O-(2-methoxyethyl) nucleotides, also known as 2′-MOE nucleotides. […]
# OVA sensitized mice [1] = experiment: Acute allergic inflammation mouse model with inhaled budesonide and/or ISIS 231894; type: in vivo; settings: 1 μg/kg ISIS 231894 alone (Table 9)
# Description: In the mouse model of allergic inflammation, mice are sensitized and challenged with aerosolized chicken ovalbumin (OVA). Airway responsiveness is assessed by inducing airflow obstruction using a noninvasive method whereby unrestrained conscious OVA sensitized mice are placed into the main chamber of a plethysmograph (Buxco Electronics, Inc. Troy, N.Y.) and challenged with aerosolized methacholine. Pressure difference between this chamber and a reference chamber is used to extrapolate minute volume, breathing frequency and enhanced pause (Penh). Penh is a dimensionless parameter that is a function of total pulmonary airflow (i.e. the sum of the airflow in the upper and lower respiratory tracts) during the respiratory cycle of a mouse and is lower when airflow is greater.
# For the acute model of allergic inflammation, mice were sensitized with 20 μg of alum-precipitated OVA was injected intraperitoneally on days 0 and 14. On days 24, 25 and 26, animals were exposed for 20 minutes to 1% OVA (in saline) by ultrasonic nebulization. On days 17, 19, 21, 24 and 26 animals were dosed with vehicle alone (saline), 1 μg/kg or 10 μg/kg of ISIS 231894 or the mismatch control oligonucleotide. Oligonucleotides or vehicle were suspended in 0.9% sodium chloride and delivered via inhalation using a nose-only aerosol delivery exposure system. A Lovelace nebulizer set at a flow rate of 1.4 liter per minute feeding into a total flow rate of 10 liters per minute was used to deliver the oligonucleotide. The exposure chamber was equilibrated with an oligonucleotide aerosol solution for 5 minutes before mice were placed in a restraint tube attached to the chamber. Restrained mice were treated for a total of 10 minutes. Analysis was performed on day 28.
# The acute mouse model of allergic inflammation was used to determine if co-administration of inhaled IL-4R alpha antisense oligonucleotide would enhance the activity of inhaled budesonide, or reduce the dose required to produce anti-inflammatory activity. As described in Example 6, mice were sensitized with alum-precipitated OVA at day 0 and day 14 and nebulized with OVA in saline on days 24, 25 and 26. All mice were analyzed on day 28. Budesonide (0.3, 3, 30, and 300 μg/kg dissolved in PBS Containing 20% DMSO) was administered by nose-only aerosol exposure beginning on day 23 (24 and 20 hours before OVA exposure) and then daily through day 26, one hour prior to daily OVA exposure. The 30 μg/kg dose was also administered twice a day (bid) from day 23-26 as a separate group. As in Example 6, ISIS 231894 was administered by nose-only aerosol exposure at day 17, 19, 21, 23 and 26.
# The effect of budesonide and/or ISIS 231894 treatment on AHR, BAL eosinophil infiltration and mucus accumulation (number of PAS-positive airways) were determined.
# OVA sensitized mice [2] = experiment: Mouse model of allergic inflammation, rechallenge model (AHR/Penh, BAL eosinophils, cytokines); type: in vivo
# Description: In the mouse model of allergic inflammation, mice are sensitized and challenged with aerosolized chicken ovalbumin (OVA). Airway responsiveness is assessed by inducing airflow obstruction using a noninvasive method whereby unrestrained conscious OVA sensitized mice are placed into the main chamber of a plethysmograph (Buxco Electronics, Inc. Troy, N.Y.) and challenged with aerosolized methacholine. Pressure difference between this chamber and a reference chamber is used to extrapolate minute volume, breathing frequency and enhanced pause (Penh). Penh is a dimensionless parameter that is a function of total pulmonary airflow (i.e. the sum of the airflow in the upper and lower respiratory tracts) during the respiratory cycle of a mouse and is […] when airflow is greater. This parameter closely correlates with lung resistance as measured by traditional, invasive techniques using ventilated animals (Hamelmann et al., 1997, Am. J. Respir. Crit. Care Med. 156:766-775).
# The rechallenge model of allergic inflammation includes a second series of nebulized OVA challenges on days 66 and 67 in addition to the sensitization and challenge steps of the acute model. This model allows for the evaluation of the target's role in a recall response, as opposed to its role as an initiator molecule. In the rechallenge model, mice were treated with 10, 100 or 500 μg/kg of either ISIS 231894 or the mismatch control oligonucleotide on days 52, 54, 56, 59 and 61, subsequent to the onset and resolution of the OVA-induced acute inflammatory response, delivered by nose only inhalation. The study endpoints were similar to those in the acute model, and included Penh response (i.e. AHR reduction), inflammatory cells and cytokines in BAL (determined by ELISA), mucus accumulation (as determined by periodic acid-Schiff base [PAS] staining in lungs), lung histology and IL-4R alpha protein reduction in lung epithelial and inflammatory cells (as determined by flow cytometry). The results are shown below in Tables 5 and 6.
# [3] = Lung concentration, lung half life and tolerability of inhaled oligonucleotide in mice
substance,measurement,setting,value
"ISIS 231894: lead antisense oligonucleotide targeted to mouse IL-4R alpha; CCGCTGTTCTCAGGTGACAT; SEQ ID NO: 24; 2'-MOE gapmer, phosphorothioate (all phosphorothioate, sugars by position and methylation of C not given here; 2'-MOE gapmer)",IL-4R alpha mRNA,mouse IL-4R alpha RNA; 1 nM,100 % of untreated control
same,IL-4R alpha mRNA,mouse IL-4R alpha RNA; 5 nM,55 % of untreated control
same,IL-4R alpha mRNA,mouse IL-4R alpha RNA; 10 nM,41 % of untreated control
same,IL-4R alpha mRNA,mouse IL-4R alpha RNA; 25 nM,35 % of untreated control
same,IL-4R alpha mRNA,mouse IL-4R alpha RNA; 50 nM,20 % of untreated control
same,IL-4R alpha mRNA,mouse IL-4R alpha RNA; 100 nM,20 % of untreated control
same,mouse IL-4R alpha mRNA reduction (in words),mouse IL-4R alpha RNA; compared to mismatch control,dose-dependent mouse IL-4R alpha mRNA reduction
same,% Eosinophils (BAL),OVA sensitized mice [1],27%
same,PAS+ airways (mucus accumulation),OVA sensitized mice [1],21
same,Penh (100 mg/mL methacholine),OVA sensitized mice [1],6.2
same,"percentage of eosinophils in BAL fluid vs mismatch control, in words",OVA sensitized mice [2],significantly reduced
same,"lung IL-5 mRNA, in words",OVA sensitized mice [2]; 10 μg and 100 μg doses,inhibited
same,% Eosinophils (BAL),OVA sensitized mice [2]; 10 μg/kg inhaled,22%
same,Penh (100 mg/mL methacholine),OVA sensitized mice [2]; 10 μg/kg inhaled,3
same,% Eosinophils (BAL),OVA sensitized mice [2]; 100 μg/kg inhaled,18%
same,Penh (100 mg/mL methacholine),OVA sensitized mice [2]; 100 μg/kg inhaled,3.5
same,% Eosinophils (BAL),OVA sensitized mice [2]; 500 μg/kg inhaled,15%
same,Penh (100 mg/mL methacholine),OVA sensitized mice [2]; 500 μg/kg inhaled,3.5
same,"methacholine-induced AHR (Penh) vs vehicle control, in words","OVA sensitized mice [2]; all three doses (10, 100, 500 μg/kg)",significant reduction
same,"cytokines KC, MCP-1, IL-5 and IL-13 in BAL fluid vs vehicle control, in words","OVA sensitized mice [2]; doses of 100 μg and 500 μg, ELISA",significantly reduced expression
same,"effect of once weekly dosing on AHR and airway inflammation, in words",[3]; mice with well established allergen-induced pulmonary inflammation,reduced AHR and airway inflammation
same,tolerability of intrapulmonary aerosol doses,"[3]; mice, doses up to 1 mg/kg",well-tolerated
